Data reported in patent US9028856B2, “Synergistic pesticide compositions” (priority 2008, dated 2015).

Key:
[1] = test system: Argentine ant, Linepithema humile; assay: Knockdown/mortality of ant workers under continuous exposure on treated glazed tile; conditions: for toxicity / efficacy of the substance alone (summary in words): Argentine ant, treated glazed tile; for Average % Knockdown & Mortality after 30 min / Average % Knockdown & Mortality after 1 hr / Average % Knockdown & Mortality after 6 hr / Average % Knockdown & Mortality after 24 hr / Average % Knockdown & Mortality after 4 hr / Average % Knockdown & Mortality after 2 hr / Average % Knockdown & Mortality after 3 hr / Average % Knockdown & Mortality after 7 hr / Average % Knockdown & Mortality after 15 min / Average % Knockdown & Mortality after 18 hr: glazed tile
Description: (§1) Solutions of imidacloprid at 0.5% AI were prepared with and without methyl oleate @0.1, 1.0 and 5.0% in acetone. Treatments were applied using a micropipette to dispense 1 ml of test solution evenly on a 6″×6″ glazed tile. Actual coverage was about 5″×5″ (or 161 cm^2) for easy handling. Treatments were allowed to dry overnight. Ten Argentine ant workers were placed within a fluon or talc-coated PVC ring (φ7.6 cm×H 5.1 cm) under continuous exposure. A small vial filled with a cotton ball soaked in water was added as a drinking source after 3 hours. Treatments were replicated a minimum of three times. Evaluations for ant knockdown/mortality were made at various intervals and at 24 hours after exposure.
as §1, with “MATERIALS AND METHODS: Solutions” for “Solutions”, “linoleate” for “oleate”
as §1, with “MATERIALS AND METHODS: Solutions of” for “Solutions of”, “without methyl palmitate @0.1, 1.0” for “without methyl oleate @0.1, 1.0”, “after exposure. […]” for “after exposure.”

[2] = test system: bait averse/resistant German cockroach (T-164 strain); assay: Knockdown/mortality of male cockroaches under continuous exposure on treated glazed tile; assay type: in vivo, Blattella germanica; design: Average % Knockdown & Mortality after 5 hr / Average % Knockdown & Mortality after 30 min: concentration or dose not given beside the values; conditions: for toxicity / efficacy of the substance alone (summary in words): German cockroach T-164, treated glazed tile; for Average % Knockdown & Mortality after 45 min: Table 24, imidacloprid/dibutyl sebacate (DBS) in acetone, T-164 strain
[3] = Table 19 (Ex. 16), continuous exposure
[4] = Table 19 (Ex. 16), continuous exposure, listed as TBHQ (0.1%)
[5] = Table 19 (Ex. 16), continuous exposure, listed as TBHQ (1%)
[6] = Table 19 (Ex. 16), continuous exposure, listed as TBHQ (5%)
[7] = Table 18 (Ex. 15), glazed tile, continuous exposure, listed as TBHQ (1%)
[8] = Table 18 (Ex. 15), glazed tile, continuous exposure, listed as TBHQ (5%)
[9] = 2 hr, Table 25, imidacloprid/dibutyl sebacate (DBS) in acetone
[10] = 4 hr, Table 25, imidacloprid/dibutyl sebacate (DBS) in acetone
[11] = Table 10 (Ex. 7), continuous exposure, listed as Methyl Linoleate (1%)
[12] = Table 10 (Ex. 7), continuous exposure, listed as Methyl Linoleate (5%)
[13] = Table 14 (Ex. 11), continuous exposure
[14] = Table 15 (Ex. 12), glazed tile, continuous exposure
[15] = Table 15 (Ex. 12), glazed tile, continuous exposure, listed as Butylated hydroxyanisole (BHA) (1%)
[16] = Table 15 (Ex. 12), glazed tile, continuous exposure, listed as Butylated hydroxyanisole (BHA) (5%)
[17] = Table 16 (Ex. 13), continuous exposure, listed as Butylated hydroxytoluene (BHT) (1%)
[18] = Table 16 (Ex. 13), continuous exposure, listed as Butylated hydroxytoluene (BHT) (5%)
[19] = Table 8 (Ex. 5), continuous exposure, listed as Methyl Oleate (1%)
[20] = Table 8 (Ex. 5), continuous exposure, listed as Methyl Oleate (5%)

Compound: CC(C)(C)c1cc(O)ccc1O [TBHQ, tertiary butyl dihydroxyquinone]
- toxicity / efficacy of the substance alone (summary in words) [1]: toxic effect
- Average % Knockdown & Mortality after 30 min [1, 3]: 0%
- Average % Knockdown & Mortality after 1 hr [1, 3]: 0%
- Average % Knockdown & Mortality after 6 hr [1, 4]: 7%
- Average % Knockdown & Mortality after 24 hr [1, 4]: 11%
- Average % Knockdown & Mortality after 4 hr [1, 5]: 0%
- Average % Knockdown & Mortality after 6 hr [1, 5]: 10%
- Average % Knockdown & Mortality after 4 hr [1, 6]: 10%
- Average % Knockdown & Mortality after 6 hr [1, 6]: 23%
- Average % Knockdown & Mortality after 24 hr [1, 6]: 100%
- toxicity / efficacy of the substance alone (summary in words) [2]: at the higher rates (1 & 5%) showed delayed toxic effect
- Average % Knockdown & Mortality after 30 min ([2]; Table 18 (Ex. 15), glazed tile, continuous exposure): 0%
- Average % Knockdown & Mortality after 24 hr ([2]; Table 18 (Ex. 15), glazed tile, continuous exposure, listed as TBHQ (0.1%)): 7%
- Average % Knockdown & Mortality after 1 hr [2, 7]: 0%
- Average % Knockdown & Mortality after 2 hr [2, 7]: 0%
- Average % Knockdown & Mortality after 4 hr [2, 7]: 0%
- Average % Knockdown & Mortality after 24 hr [2, 7]: 40%
- Average % Knockdown & Mortality after 1 hr [2, 8]: 7%
- Average % Knockdown & Mortality after 2 hr [2, 8]: 7%
- Average % Knockdown & Mortality after 4 hr [2, 8]: 7%
- Average % Knockdown & Mortality after 24 hr [2, 8]: 47%

Compound: CCCCOC(=O)CCCCCCCCC(=O)OCCCC [DBS (1%)]
- Average % Knockdown & Mortality after 2 hr [1, 9]: 0%
- Average % Knockdown & Mortality after 4 hr [1, 10]: 77%
- Average % Knockdown & Mortality after 45 min ([2]; glazed tile): 0%

Compound: ClC(c1ccccc1)(c1ccccc1)c1ccccc1 [Tritylchloride, triphenyl methyl chloride (tritylchloride)]
- toxicity / efficacy of the substance alone (summary in words) [1]: not toxic
- toxicity / efficacy of the substance alone (summary in words) [2]: not toxic

Compound: O=C(O)CCc1ccccc1 [benzenepropanoic acid]
- toxicity / efficacy of the substance alone (summary in words) [1]: not toxic
- Average % Knockdown & Mortality after 3 hr ([1]; Table 4 (Ex. 1), continuous exposure): 0%
- Average % Knockdown & Mortality after 7 hr ([1]; Table 4 (Ex. 1), continuous exposure, listed as Benzenepropanoic acid(1%)): 0%
- Average % Knockdown & Mortality after 7 hr ([1]; Table 4 (Ex. 1), continuous exposure, listed as Benzenepropanoic acid(5%)): 7%
- toxicity / efficacy of the substance alone (summary in words) [2]: slightly to not toxic
- Average % Knockdown & Mortality after 15 min ([2]; Table 5 (Ex. 2), glazed tile, continuous exposure): 0%

Compound: CCCCC/C=C\C/C=C\CCCCCCCC(=O)OC [Methyl linoleate, methyl linoleate]
- toxicity / efficacy of the substance alone (summary in words) [1]: at high rates (1 & 5%) was toxic
- Average % Knockdown & Mortality after 4 hr ([1]; Table 10 (Ex. 7), continuous exposure, listed as Methyl Linoleate (0.1%)): 0%
- Average % Knockdown & Mortality after 15 min [1, 11]: 0%
- Average % Knockdown & Mortality after 4 hr [1, 11]: 7%
- Average % Knockdown & Mortality after 15 min [1, 12]: 7%
- Average % Knockdown & Mortality after 4 hr [1, 12]: 67%
- toxicity / efficacy of the substance alone (summary in words) [2]: toxic
- Average % Knockdown & Mortality after 15 min ([2]; Table 11 (Ex. 8), glazed tile, continuous exposure): 0%

Compound: COc1ccc(O)c(C(C)(C)C)c1 [BHA, butylated hydroxyanisole]
- toxicity / efficacy of the substance alone (summary in words) [1]: delayed toxicity
- Average % Knockdown & Mortality after 1 hr [1, 13]: 0%
- Average % Knockdown & Mortality after 2 hr [1, 13]: 0%
- Average % Knockdown & Mortality after 30 min ([1]; Table 14 (Ex. 11), continuous exposure, UTC 63% at 24 hr): 0%
- Average % Knockdown & Mortality after 24 hr ([1]; Table 14 (Ex. 11), continuous exposure, UTC 63% at 24 hr, listed as Butylated hydroxyanisole (BHA) (0.1%)): 37%
- Average % Knockdown & Mortality after 24 hr ([1]; Table 14 (Ex. 11), continuous exposure, UTC 63% at 24 hr, listed as Butylated hydroxyanisole (BHA) (1%)): 40%
- Average % Knockdown & Mortality after 24 hr ([1]; Table 14 (Ex. 11), continuous exposure, UTC 63% at 24 hr, listed as Butylated hydroxyanisole (BHA) (5%)): 74%
- Average % Knockdown & Mortality after 4 hr ([1]; Table 14 (Ex. 11), continuous exposure, listed as Butylated hydroxyanisole (BHA) (0.1%)): 10%
- Average % Knockdown & Mortality after 4 hr ([1]; Table 14 (Ex. 11), continuous exposure, listed as Butylated hydroxyanisole (BHA) (1%)): 3%
- Average % Knockdown & Mortality after 4 hr ([1]; Table 14 (Ex. 11), continuous exposure, listed as Butylated hydroxyanisole (BHA) (5%)): 19%
- toxicity / efficacy of the substance alone (summary in words) [2]: at the high rate (5%) was toxic to the German cockroach, but not at its lower rates (1.0 and 0.1%)
- Average % Knockdown & Mortality after 30 min [2, 14]: 0%
- Average % Knockdown & Mortality after 1 hr [2, 14]: 0%
- Average % Knockdown & Mortality after 24 hr ([2]; Table 15 (Ex. 12), glazed tile, continuous exposure, listed as Butylated hydroxyanisole (BHA) (0.1%)): 20%
- Average % Knockdown & Mortality after 2 hr [2, 15]: 0%
- Average % Knockdown & Mortality after 4 hr [2, 15]: 0%
- Average % Knockdown & Mortality after 24 hr [2, 15]: 0%
- Average % Knockdown & Mortality after 2 hr [2, 16]: 20%
- Average % Knockdown & Mortality after 4 hr [2, 16]: 20%
- Average % Knockdown & Mortality after 24 hr [2, 16]: 73%

Compound: c1ccc(Cc2ccccc2)cc1 [Diphenyl methane, diphenyl methane]
- toxicity / efficacy of the substance alone (summary in words) [1]: not toxic
- Average % Knockdown & Mortality after 2 hr ([1]; Table 20 (Ex. 17), continuous exposure): 0%
- Average % Knockdown & Mortality after 4 hr ([1]; Table 20 (Ex. 17), continuous exposure, listed as Diphenyl methane (DPM) (0.1%)): 13%
- Average % Knockdown & Mortality after 4 hr ([1]; Table 20 (Ex. 17), continuous exposure, listed as Diphenyl methane (DPM) (5%)): 0%
- toxicity / efficacy of the substance alone (summary in words) [2]: not toxic
- Average % Knockdown & Mortality after 3 hr ([2]; Table 21 (Ex. 18), glazed tile, continuous exposure): 0%

Compound: Cc1cc(C(C)(C)C)c(O)c(C(C)(C)C)c1 [BHT, butylated hydroxytoluene]
- toxicity / efficacy of the substance alone (summary in words) [1]: toxic
- Average % Knockdown & Mortality after 18 hr ([1]; Table 16 (Ex. 13), continuous exposure, listed as Butylated hydroxytoluene (BHT) (0.1%)): 7%
- Average % Knockdown & Mortality after 2 hr [1, 17]: 3%
- Average % Knockdown & Mortality after 18 hr [1, 17]: 3%
- Average % Knockdown & Mortality after 2 hr [1, 18]: 7%
- Average % Knockdown & Mortality after 18 hr [1, 18]: 79%
- toxicity / efficacy of the substance alone (summary in words) [2]: not toxic
- Average % Knockdown & Mortality after 5 hr ([2]; Table 17 (Ex. 14), glazed tile, continuous exposure): 0%

Compound: CCCCOC(=O)CCCCCCCCC(=O)OCCCC [DBS, dibutyl sebacate]
- toxicity / efficacy of the substance alone (summary in words) [1]: toxic to the Argentine ants, and the lower rates (0.1 & 1.0%) of DBS showed delayed toxicity
- toxicity / efficacy of the substance alone (summary in words) [2]: not toxic to German cockroaches, except at its highest rate (5%)

Compound: CCCCOC(=O)CCCCCCCCC(=O)OCCCC [DBS (0.1%)]
- Average % Knockdown & Mortality after 2 hr [1, 9]: 0%
- Average % Knockdown & Mortality after 4 hr [1, 10]: 9%
- Average % Knockdown & Mortality after 45 min ([2]; glazed tile): 0%

Compound: CCCCCCCC/C=C\CCCCCCCC(=O)OC [Methyl oleate, methyl oleate]
- toxicity / efficacy of the substance alone (summary in words) [1]: toxic
- Average % Knockdown & Mortality after 4 hr ([1]; Table 8 (Ex. 5), continuous exposure, listed as Methyl Oleate (0.1%)): 13%
- Average % Knockdown & Mortality after 15 min [1, 19]: 0%
- Average % Knockdown & Mortality after 4 hr [1, 19]: 55%
- Average % Knockdown & Mortality after 15 min [1, 20]: 3%
- Average % Knockdown & Mortality after 4 hr [1, 20]: 100%
- toxicity / efficacy of the substance alone (summary in words) [2]: at the higher rates (1 & 5%) showed delayed toxic effect
- Average % Knockdown & Mortality after 15 min ([2]; Table 9 (Ex. 6), glazed tile, continuous exposure, listed as Methyl Oleate (1%)): 0%
- Average % Knockdown & Mortality after 15 min ([2]; Table 9 (Ex. 6), glazed tile, continuous exposure, listed as Methyl Oleate (5%)): 7%

Compound: CCCCCCCCCCCCCCCC(=O)OC [Methyl palmitate, methyl palmitate]
- toxicity / efficacy of the substance alone (summary in words) [1]: not toxic
- Average % Knockdown & Mortality after 3 hr ([1]; Table 12 (Ex. 9), continuous exposure): 0%
- Average % Knockdown & Mortality after 7 hr ([1]; Table 12 (Ex. 9), continuous exposure, listed as Methyl Palmitate (1%)): 0%
- Average % Knockdown & Mortality after 7 hr ([1]; Table 12 (Ex. 9), continuous exposure, listed as Methyl Palmitate (5%)): 7%
- toxicity / efficacy of the substance alone (summary in words) [2]: not toxic
- Average % Knockdown & Mortality after 4 hr ([2]; Table 13 (Ex. 10), glazed tile, continuous exposure): 0%
